Results published in PubChem BioAssay (NCI).
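Step 1: Grow cells in 96-well plates. Step 2: Expose to compound for 48 hours at 5 concentrations. Step 3: Interpolate endpoints linearly; if unreached, use highest concentration. GI50 marks 50% less growth. TGI: total growth inhibition.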

What was measured:
Assay in all cases: NCI-60 cell line screen, 48 h
SN12C renal = test system: SN12C renal
SR leukemia = test system: SR leukemia
SK-MEL-5 melanoma = test system: SK-MEL-5 melanoma
SF-268 CNS = test system: SF-268 CNS
NCI-H460 lung = test system: NCI-H460 lung
LOX IMVI melanoma = test system: LOX IMVI melanoma
OVCAR-4 ovarian = test system: OVCAR-4 ovarian
RXF 393 renal = test system: RXF 393 renal
NCI-H23 lung = test system: NCI-H23 lung
UACC-257 melanoma = test system: UACC-257 melanoma

| Compound | TGI (SN12C renal) | TGI (SR leukemia) | TGI (SK-MEL-5 melanoma) | TGI (SF-268 CNS) | GI50 (NCI-H460 lung) | TGI (NCI-H460 lung) | GI50 (SN12C renal) | GI50 (LOX IMVI melanoma) | TGI (LOX IMVI melanoma) | GI50 (OVCAR-4 ovarian) | TGI (OVCAR-4 ovarian) | GI50 (RXF 393 renal) | TGI (RXF 393 renal) | GI50 (NCI-H23 lung) | TGI (NCI-H23 lung) | GI50 (SF-268 CNS) | GI50 (UACC-257 melanoma) | TGI (UACC-257 melanoma) | GI50 (SK-MEL-5 melanoma) | GI50 (SR leukemia) |
| --- | --- | --- | --- | --- | --- | --- | --- | --- | --- | --- | --- | --- | --- | --- | --- | --- | --- | --- | --- | --- |
| CC(C)N(C(=O)C12C3C4C1C1C2C3C41C(O)C(C)(C)C)C(C)C (centres undefined) | > 50 µM | > 50 µM | > 50 µM | > 50 µM |  |  |  |  |  |  |  |  |  |  |  |  |  |  |  |  |
| COc1cc(Nc2ccnc(N3CCN(c4ccnc5cc(Cl)ccc45)CC3)n2)cc(OC)c1 | > 100 µM |  |  | > 100 µM | 1.51 µM | > 100 µM | 1.28 µM | 0.749 µM | 5.68 µM | 0.477 µM | > 45.1 µM | 1.86 µM | > 100 µM | 1.32 µM | > 100 µM | 3.05 µM | 3.35 µM | > 100 µM |  |  |
| CC[O-].CC[O-].O=C1C(=C([O-])c2ccccc2)C(=O)c2ccccc21.O=C1C(=C([O-])c2ccccc2)C(=O)c2ccccc21.[Ti+4] | 99 µM |  | > 100 µM | > 10 µM | 42.9 µM | > 100 µM | 26.6 µM | > 100 µM | > 100 µM | > 100 µM | > 100 µM | > 100 µM | > 100 µM | 92.3 µM | > 100 µM | > 10 µM | > 100 µM | > 100 µM | > 100 µM |  |
| COc1ccc([C@H]2CC(=O)N3CCCC3N2)cc1 (some centres undefined) | > 100 µM | > 100 µM | > 100 µM | > 100 µM |  | > 100 µM |  |  |  |  | > 100 µM |  | > 100 µM |  | > 100 µM |  |  | > 100 µM |  |  |
| Cc1cc2c(C(C)C)c(O)c(O)c(C=Nc3cc(C(F)(F)F)ccc3Cl)c2c(O)c1-c1c(C)cc2c(C(C)C)c(O)c(O)c(C=Nc3cc(C(F)(F)F)ccc3Cl)c2c1O | > 100 µM | > 100 µM | 64.7 µM | > 100 µM |  | > 100 µM |  |  | 47.3 µM |  |  |  | 97.7 µM |  | > 100 µM |  |  | > 100 µM |  |  |
| C/C(=N\O)c1ccc(Nc2cc(-n3nnc4ccccc43)nc3ccccc23)cc1 | 14.2 µM | 74.9 µM | 16.6 µM | > 41.9 µM | 4.08 µM | > 25.4 µM | 4.67 µM | 3.44 µM | 13.5 µM | 13.9 µM | > 72.2 µM |  |  | 8.98 µM | > 29.5 µM | 9.97 µM | 17.5 µM | > 53.7 µM | 5.57 µM | 18.7 µM |
| O=C(CC(C(=O)c1cccs1)c1ccc2c(c1)OCO2)c1ccc(Br)cc1 (centres undefined) | > 100 µM | > 100 µM | > 100 µM | > 100 µM |  | > 100 µM |  |  |  |  | > 100 µM |  |  |  | > 100 µM |  |  | > 100 µM |  |  |
| Cc1cc(O)c2c(c1)C(O)(c1ccc3c(c1O)C(=O)c1c(O)cc(C)cc1C3(O)C1OC(CO)C(O)C(O)C1O)c1cccc(O)c1C2=O (centres undefined) |  | 30.9 µM | 33 µM | 36 µM |  | 27.9 µM |  |  | 28 µM |  | 26.4 µM |  | 24.7 µM |  | 31.2 µM |  |  | 28.7 µM |  |  |
| C/C(=N/N(C=O)C[n+]1ccccc1)C(CN(CC(C)C)CC(C)C)C(=O)Nc1ccc(C)cc1C (centres undefined) | > 100 µM | > 100 µM | > 100 µM | > 100 µM |  | > 100 µM |  |  |  |  | > 100 µM |  | > 100 µM |  | > 100 µM |  |  | > 100 µM |  |  |
| O=C(c1ccccc1)c1c(CC(O)c2cccnc2)n(C(=O)c2ccccc2)c2ccccc12 (centres undefined) |  | 35.1 µM | 31 µM | 59.4 µM |  | 36.4 µM |  |  |  |  | 42.4 µM |  |  |  | 36.5 µM |  |  | 42 µM |  |  |
| Clc1ccccc1NN(Cc1ccccn1)c1ccccc1Cl | 33.3 µM | 34.1 µM | 27.9 µM | 52.4 µM |  |  |  |  | 32.8 µM |  | 37.2 µM |  | 29.2 µM |  | 50.4 µM |  |  |  |  |  |
| COc1ccc(OC)c(-c2cc(-c3ccccc3)nn2-c2ccc(S(=O)(=O)NC(C)=O)cc2)c1 | 26.2 µM | > 100 µM | 26.8 µM | 32.2 µM | 13.2 µM | > 100 µM | 13.2 µM |  |  |  |  | 4.07 µM | 9.31 µM | 8.24 µM | 21.5 µM | 10.1 µM |  |  | 11.8 µM | 2.38 µM |
| Cc1cc(C)c2c(c1)CN1CN2Cc2cc(C)cc(C)c21 | 32.6 µM | 39.3 µM |  | > 100 µM |  | 29.6 µM |  |  | 30.7 µM |  | 50.8 µM |  | 22.4 µM |  | 55.4 µM |  |  |  |  |  |
| O=c1oc2ccccc2c(O)c1C=NC(=S)c1ccncc1 | > 100 µM |  | > 100 µM |  |  | > 100 µM |  |  | > 100 µM |  | > 100 µM |  |  |  | > 100 µM |  |  | > 100 µM |  |  |
| N=C(N)SCc1cn2ccccc2n1 | > 100 µM | > 100 µM | > 100 µM | > 100 µM |  | > 100 µM |  |  | > 100 µM |  | > 100 µM |  |  |  | > 100 µM |  |  | > 100 µM |  |  |
| O=C(CCc1nc(=S)[nH][nH]1)NC12CC3CC(CC(C3)C1)C2 | > 100 µM | > 100 µM | > 100 µM |  |  | > 100 µM |  |  | > 100 µM |  | > 100 µM |  | > 100 µM |  | > 100 µM |  |  | > 100 µM |  |  |
| COC(=O)C1=CCON(c2ccccc2)C1c1ccccc1 (centres undefined) |  | > 100 µM |  | > 100 µM |  | > 100 µM |  |  | > 100 µM |  |  |  | > 100 µM |  | > 100 µM |  |  |  |  |  |
| O=C1[C@@H](c2ccc(Cl)cc2)[C@H]2CC=C[C@H]2N1O | > 100 µM |  | > 100 µM | > 100 µM |  |  |  |  | > 100 µM |  |  |  | > 100 µM |  | > 100 µM |  |  | > 100 µM |  |  |
| O=C1c2ccccc2N2OC3(N4CCCC4)CCCC3C12c1ccccc1 (centres undefined) | > 100 µM | > 100 µM | > 100 µM | > 100 µM |  |  |  |  |  |  | > 100 µM |  | > 100 µM |  | > 100 µM |  |  | > 100 µM |  |  |
| COC(=O)C1=C(OC(=O)c2ccc(Cl)cc2)C(C(=O)OC)[C@@]2(O)[C@@H](C(=O)OC)C(c3ccccc3C(F)(F)F)C[C@@H]1[C@@H]2C(=O)OC (some centres undefined) | 6.66 µM | > 100 µM | 12.4 µM | > 100 µM | 6.53 µM | 77.1 µM | 2.08 µM |  |  |  |  | 2.14 µM | 5.43 µM | 3.47 µM | 16.8 µM | 11 µM | 2.76 µM | 8.32 µM | 3.46 µM | 3.94 µM |
